Assay results from patent US20230114728A1 (Venatorx Pharmaceuticals, Inc., priority 2019, published 2023).
≈ marks a conversion by molar mass, not a printed value.

Columns and labels:
P. aeruginosa PBP3 = target: T1, P. aeruginosa PBP3 (Pseudomonas aeruginosa, UniProt G3XD46); assay: Bocillin-FL fluorescence polarization competition binding assay, P. aeruginosa PBP3; details: fluorescence polarization competition binding assay using Bocillin-FL
T1 construct: made in house
How it was run: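 Binding of boronic acid inhibitors to purified Pseudomonas aeruginosa (PA01) PBP3 was measured by fluorescence polarization competition with Bocillin-FL, a fluorescent penicillin V. Reactions of 80 μl contained 0.75 μM PBP3 and 0.1 μM Bocillin-FL in 50 mM Hepes (pH 8.0), 300 mM NaCl and 5% (v/v) glycerol, in black 384-well plates. FP (Excitation 490 nm, Emission 520 nm) was read for up to 60 minutes. EC50 is the concentration that halves PBP-bound Bocillin-FL.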

E. coli K12 PBP3 = target: T2, E. coli K12 PBP3 (Escherichia coli, UniProt P0AD68); assay: biochemical; assay type: binding
T2 construct: made in house
How it was run: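 Fluorescence polarization (ex 490/em 520 nm) competition of inhibitors against Bocillin-FL at 0.1 μM, read up to 60 min. Final PBP levels: E. coli PBP3 1.5 μM; A. baumannii PBP2 2.5 μM, PBP3 0.2 μM in Tris pH 8.0/NaCl/glycerol/Tween 20; N. gonorrhoeae PBP2 […] in Hepes pH 8.0/NaCl/glycerol. EC50 = concentration halving PBP-bound Bocillin-FL.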

N. gonorrhoeae H041 = assay: Liquid broth MIC in Fastidious broth; assay type: cell-based; details: Neisseria gonorrhoeae, H041, read-out: Minimum Inhibitory Concentration, N. gonorrhoeae H041
How it was run: (§1)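 MIC = lowest concentration giving <10% growth relative to untreated wells, scored by eye after ~24 h at 36 °C, 5% CO2. Strains carry mosaic PBP2; inoculum 5×10^5 CFU/mL in Fastidious broth with 2-fold serial compound dilutions.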

N. gonorrhoeae WHO G = assay: Liquid broth MIC in Fastidious broth; assay type: cell-based; details: Neisseria gonorrhoeae; N. gonorrhoeae strain WHO G; Fastidious broth; read-out: Minimum Inhibitory Concentration, N. gonorrhoeae WHO G
How it was run: (§2)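 Colonies were swabbed from chocolate agar after 24 h growth and standardised by optical density at 600 nm. Compounds were serially diluted twofold in Fastidious broth, and bacteria added to give 5×10^5 CFU/mL. After about 24 h at 36 °C in 5% CO2, the lowest concentration allowing under 10% growth was taken as MIC.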

N. gonorrhoeae WHO Z = assay: Liquid broth MIC in Fastidious broth; assay type: cell-based; details: Neisseria gonorrhoeae, read-out: Minimum Inhibitory Concentration, N. gonorrhoeae WHO Z
How it was run: as §1

N. gonorrhoeae FA1090 = assay: Liquid broth MIC in Fastidious broth; assay type: cell-based; details: Neisseria gonorrhoeae; N. gonorrhoeae strain FA1090; Fastidious broth; read-out: Minimum Inhibitory Concentration, N. gonorrhoeae FA1090
How it was run: as §2

N. gonorrhoeae WHO L = assay: Liquid broth MIC in Fastidious broth; assay type: cell-based; details: Neisseria gonorrhoeae; N. gonorrhoeae strain WHO L; Fastidious broth; read-out: Minimum Inhibitory Concentration, N. gonorrhoeae WHO L
How it was run: as §2

[1] = tested on: N. gonorrhoeae ATCC 49226; assay: Liquid broth MIC in Fastidious broth; assay type: cell-based; details: Neisseria gonorrhoeae, ATCC49226; N. gonorrhoeae strain ATCC 49226; Fastidious broth; read-out: Minimum Inhibitory Concentration, N. gonorrhoeae ATCC 49226
How it was run: as §2

N. gonorrhoeae WHO Q = assay: Liquid broth MIC in Fastidious broth; assay type: cell-based; details: Neisseria gonorrhoeae, read-out: Minimum Inhibitory Concentration, N. gonorrhoeae WHO Q
How it was run: as §1

N. gonorrhoeae WHO K = assay: Liquid broth MIC in Fastidious broth; assay type: cell-based; details: Neisseria gonorrhoeae, read-out: Minimum Inhibitory Concentration, N. gonorrhoeae WHO K
How it was run: as §1

T1 sequence (G3XD46 whole entry): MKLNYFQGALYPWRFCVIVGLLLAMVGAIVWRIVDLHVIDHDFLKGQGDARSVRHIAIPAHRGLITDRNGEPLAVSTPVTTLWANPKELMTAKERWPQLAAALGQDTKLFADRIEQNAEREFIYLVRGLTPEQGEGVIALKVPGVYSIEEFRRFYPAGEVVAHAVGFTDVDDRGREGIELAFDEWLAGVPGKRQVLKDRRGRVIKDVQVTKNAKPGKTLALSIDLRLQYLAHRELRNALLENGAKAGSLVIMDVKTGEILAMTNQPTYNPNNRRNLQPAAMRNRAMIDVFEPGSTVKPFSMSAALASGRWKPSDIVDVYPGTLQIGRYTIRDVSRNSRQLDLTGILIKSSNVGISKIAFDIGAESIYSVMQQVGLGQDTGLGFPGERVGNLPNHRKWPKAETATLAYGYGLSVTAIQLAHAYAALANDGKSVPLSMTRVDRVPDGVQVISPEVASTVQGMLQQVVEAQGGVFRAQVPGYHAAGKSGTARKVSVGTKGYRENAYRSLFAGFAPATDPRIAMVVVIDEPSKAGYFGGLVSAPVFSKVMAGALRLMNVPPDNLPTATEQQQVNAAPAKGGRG
T2 sequence (P0AD68 1-577): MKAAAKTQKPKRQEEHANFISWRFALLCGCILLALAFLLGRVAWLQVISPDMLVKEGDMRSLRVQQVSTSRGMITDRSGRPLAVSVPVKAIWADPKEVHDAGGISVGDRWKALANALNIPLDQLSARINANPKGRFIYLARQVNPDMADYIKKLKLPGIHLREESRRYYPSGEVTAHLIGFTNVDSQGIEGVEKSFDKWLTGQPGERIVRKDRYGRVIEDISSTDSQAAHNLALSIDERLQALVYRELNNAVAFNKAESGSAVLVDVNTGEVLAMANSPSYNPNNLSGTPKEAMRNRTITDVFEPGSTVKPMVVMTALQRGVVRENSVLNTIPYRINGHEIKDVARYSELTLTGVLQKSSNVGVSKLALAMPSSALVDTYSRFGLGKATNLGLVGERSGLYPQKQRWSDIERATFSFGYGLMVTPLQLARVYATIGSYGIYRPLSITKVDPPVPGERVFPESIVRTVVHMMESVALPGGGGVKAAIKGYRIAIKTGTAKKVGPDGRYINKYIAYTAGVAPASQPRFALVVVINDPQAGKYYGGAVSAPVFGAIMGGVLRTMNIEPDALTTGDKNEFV

Row | Structure (SMILES) | P. aeruginosa PBP3 Potency (P. aeruginosa PBP3) | EC50 (E. coli K12 PBP3) [µM] | MIC (N. gonorrhoeae H041) [µg/mL] | MIC (N. gonorrhoeae WHO G) [µg/mL] | MIC (N. gonorrhoeae WHO Z) [µg/mL] | MIC (N. gonorrhoeae FA1090) [µg/mL] | MIC (N. gonorrhoeae WHO L) [µg/mL] | MIC [1] [µg/mL] | MIC (N. gonorrhoeae WHO Q) [µg/mL] | MIC (N. gonorrhoeae WHO K) [µg/mL]
1 | NCCN1CCN(C(=O)NC(C(=O)N[C@H]2Cc3cccc(C(=O)O)c3OB2O)c2ccc(C(=O)O)c(Cl)c2)C(=O)C1=O (stereo partly drawn) [Example 153, (3R)-3-(2-(4-(2-aminoethyl)-2,3-dioxopiperazine-1-carboxamido)-2-(4-carboxy-3-chlorophenyl)acetamido)-2-hydroxy-3,4-dihydro-2H-benzo[e][1,2]oxaborinine-8-carboxylic acid] | D (D represents a potency <10 μM) | < 30 | > 64 | 4 to 8 (≈ 6.65 to 13.3 µM) | 16 to 32 (≈ 26.6 to 53.2 µM) | 1 to 2 (≈ 1.66 to 3.32 µM) | > 64 | 16 to 32 (≈ 26.6 to 53.2 µM) | 16 to 32 (≈ 26.6 to 53.2 µM) | 16 to 32 (≈ 26.6 to 53.2 µM)
2 | O=C(O)c1cccc2c1OB(O)[C@@H](NC(=O)C(NC(=O)N1CCNC1=O)c1c(F)cc(O)cc1F)C2 (stereo partly drawn) [Example 156, (3R)-3-(2-(2,6-difluoro-4-hydroxyphenyl)-2-(2-oxoimidazolidine-1-carboxamido)acetamido)-2-hydroxy-3,4-dihydro-2H-benzo[e][1,2]oxaborinine-8-carboxylic acid] | D (D represents a potency <10 μM) | < 30 | > 64 | 4 to 8 (≈ 7.93 to 15.9 µM) | > 64 | 1 to 2 (≈ 1.98 to 3.97 µM) | > 64 | 16 to 32 (≈ 31.7 to 63.5 µM) | > 64 | > 64
3 | CCN1CCN(C(=O)NC(C(=O)N[C@H]2Cc3cccc(C(=O)O)c3OB2O)c2c(F)cc(C(=O)O)cc2F)C(=O)C1=O (stereo partly drawn) [Example 157, (3R)-3-(2-(4-carboxy-2,6-difluorophenyl)-2-(4-ethyl-2,3-dioxopiperazine-1-carboxamido)acetamido)-2-hydroxy-3,4-dihydro-2H-benzo[e][1,2]oxaborinine-8-carboxylic acid] | D (D represents a potency <10 μM) | < 30 | 16 to 32 (≈ 27.2 to 54.4 µM) | 1 to 2 (≈ 1.7 to 3.4 µM) | 4 to 8 (≈ 6.8 to 13.6 µM) | < 0.125 | 4 to 8 (≈ 6.8 to 13.6 µM) | 4 to 8 (≈ 6.8 to 13.6 µM) | 4 to 8 (≈ 6.8 to 13.6 µM) | 4 to 8 (≈ 6.8 to 13.6 µM)
4 | CCN1CCN(C(=O)NC(C(=O)N[C@H]2Cc3cccc(C(=O)O)c3OB2O)c2cc(F)c(O)c(F)c2)C(=O)C1=O (stereo partly drawn) [Example 160, (3R)-3-(2-(3,5-difluoro-4-hydroxyphenyl)-2-(4-ethyl-2,3-dioxopiperazine-1-carboxamido)acetamido)-2-hydroxy-3,4-dihydro-2H-benzo[e][1,2]oxaborinine-8-carboxylic acid] | D (D represents a potency <10 μM) | < 30 | 16 to 32 (≈ 28.6 to 57.1 µM) | 1 to 2 (≈ 1.78 to 3.57 µM) | 4 to 8 (≈ 7.14 to 14.3 µM) | < 0.125 | 16 to 32 (≈ 28.6 to 57.1 µM) | 4 to 8 (≈ 7.14 to 14.3 µM) | 4 to 8 (≈ 7.14 to 14.3 µM) | 16 to 32 (≈ 28.6 to 57.1 µM)
5 | NCCN1CCN(C(=O)NC(C(=O)N[C@H]2Cc3cccc(C(=O)O)c3OB2O)c2cc(F)c(O)c(Cl)c2)C(=O)C1=O (stereo partly drawn) [Example 163, (3R)-3-(2-(4-(2-aminoethyl)-2,3-dioxopiperazine-1-carboxamido)-2-(3-chloro-5-fluoro-4-hydroxyphenyl)acetamido)-2-hydroxy-3,4-dihydro-2H-benzo[e][1,2]oxaborinine-8-carboxylic acid] | D (D represents a potency <10 μM) | < 30 | > 64 | 16 to 32 (≈ 27 to 54.1 µM) | > 64 | 1 to 2 (≈ 1.69 to 3.38 µM) | > 64 | > 64 | > 64 | > 64
6 | CCN1CCN(C(=O)NC(C(=O)N[C@H]2Cc3cccc(C(=O)O)c3OB2O)c2cc(F)c(O)c(Cl)c2)C(=O)C1=O (stereo partly drawn) [Example 164, (3R)-3-(2-(3-chloro-5-fluoro-4-hydroxyphenyl)-2-(4-ethyl-2,3-dioxopiperazine-1-carboxamido)acetamido)-2-hydroxy-3,4-dihydro-2H-benzo[e][1,2]oxaborinine-8-carboxylic acid] | D (D represents a potency <10 μM) | < 30 | 16 to 32 (≈ 27.7 to 55.5 µM) | 1 to 2 (≈ 1.73 to 3.47 µM) | 4 to 8 (≈ 6.94 to 13.9 µM) | 0.25 to 0.5 (≈ 0.433 to 0.867 µM) | 16 to 32 (≈ 27.7 to 55.5 µM) | 4 to 8 (≈ 6.94 to 13.9 µM) | 16 to 32 (≈ 27.7 to 55.5 µM) | 16 to 32 (≈ 27.7 to 55.5 µM)
7 | CCN1CCN(C(=O)NC(C(=O)N[C@H]2Cc3cccc(C(=O)O)c3OB2O)c2cc(Cl)c(O)c(Cl)c2)C(=O)C1=O (stereo partly drawn) [Example 171, (3R)-3-(2-(3,5-dichloro-4-hydroxyphenyl)-2-(4-ethyl-2,3-dioxopiperazine-1-carboxamido)acetamido)-2-hydroxy-3,4-dihydro-2H-benzo[e][1,2]oxaborinine-8-carboxylic acid] | D (D represents a potency <10 μM) | < 30 | 16 to 32 (≈ 27 to 53.9 µM) | 4 to 8 (≈ 6.74 to 13.5 µM) | 4 to 8 (≈ 6.74 to 13.5 µM) | 0.25 to 0.5 (≈ 0.421 to 0.843 µM) | > 64 | 4 to 8 (≈ 6.74 to 13.5 µM) | 16 to 32 (≈ 27 to 53.9 µM) | 16 to 32 (≈ 27 to 53.9 µM)
8 | CCN1CCN(C(=O)NC(C(=O)N[C@H]2Cc3cccc(C(=O)O)c3OB2O)c2cc(F)c(O)c(F)c2F)C(=O)C1=O (stereo partly drawn) [Example 172, (3R)-3-(2-(4-ethyl-2,3-dioxopiperazine-1-carboxamido)-2-(2,3,5-trifluoro-4-hydroxyphenyl)acetamido)-2-hydroxy-3,4-dihydro-2H-benzo[e][1,2]oxaborinine-8-carboxylic acid] | D (D represents a potency <10 μM) | < 30 | 16 to 32 (≈ 27.7 to 55.3 µM) | 0.25 to 0.5 (≈ 0.432 to 0.865 µM) | 1 to 2 (≈ 1.73 to 3.46 µM) | < 0.125 | 4 to 8 (≈ 6.92 to 13.8 µM) | 1 to 2 (≈ 1.73 to 3.46 µM) | 4 to 8 (≈ 6.92 to 13.8 µM) | 4 to 8 (≈ 6.92 to 13.8 µM)
9 | CCN1CCN(C(=O)NC(C(=O)N[C@H]2Cc3cccc(C(=O)O)c3OB2O)c2ccc(O)c(F)c2F)C(=O)C1=O (stereo partly drawn) [Example 173] | D (D represents a potency <10 μM) | < 30 | 16 to 32 (≈ 28.6 to 57.1 µM) | 1 to 2 (≈ 1.78 to 3.57 µM) | 4 to 8 (≈ 7.14 to 14.3 µM) | < 0.125 | 16 to 32 (≈ 28.6 to 57.1 µM) | 1 to 2 (≈ 1.78 to 3.57 µM) | 16 to 32 (≈ 28.6 to 57.1 µM) | 16 to 32 (≈ 28.6 to 57.1 µM)
10 | NCCN1CCN(C(=O)NC(C(=O)N[C@H]2Cc3cccc(C(=O)O)c3OB2O)c2c(F)c(F)c(O)c(F)c2F)C(=O)C1=O (stereo partly drawn) [Example 174, (3R)-3-(2-(4-(2-aminoethyl)-2,3-dioxopiperazine-1-carboxamido)-2-(2,3,5,6-tetrafluoro-4-hydroxyphenyl)acetamido)-2-hydroxy-3,4-dihydro-2H-benzo[e][1,2]oxaborinine-8-carboxylic acid] | D (D represents a potency <10 μM) | < 30 | > 64 | 1 to 2 (≈ 1.64 to 3.27 µM) | 16 to 32 (≈ 26.2 to 52.4 µM) | 0.25 to 0.5 (≈ 0.409 to 0.818 µM) | 16 to 32 (≈ 26.2 to 52.4 µM) | 4 to 8 (≈ 6.54 to 13.1 µM) | 16 to 32 (≈ 26.2 to 52.4 µM) | > 64
11 | CCN1CCN(C(=O)NC(C(=O)N[C@H]2Cc3cccc(C(=O)O)c3OB2O)c2c(F)c(F)c(O)c(F)c2F)C(=O)C1=O (stereo partly drawn) [Example 175, (3R)-3-(2-(4-ethyl-2,3-dioxopiperazine-1-carboxamido)-2-(2,3,5,6-tetrafluoro-4-hydroxyphenyl)acetamido)-2-hydroxy-3,4-dihydro-2H-benzo[e][1,2]oxaborinine-8-carboxylic acid] | D (D represents a potency <10 μM) | < 30 | 4 to 8 (≈ 6.71 to 13.4 µM) | 0.25 to 0.5 (≈ 0.419 to 0.839 µM) | 1 to 2 (≈ 1.68 to 3.35 µM) | < 0.125 | 4 to 8 (≈ 6.71 to 13.4 µM) | 1 to 2 (≈ 1.68 to 3.35 µM) | 1 to 2 (≈ 1.68 to 3.35 µM) | 1 to 2 (≈ 1.68 to 3.35 µM)
12 | CCN1CCN(C(=O)NC(C(=O)N[C@H]2Cc3cccc(C(=O)O)c3OB2O)c2c(F)cc(NS(N)(=O)=O)cc2F)C(=O)C1=O (stereo partly drawn) [Example 176, (3R)-3-(2-(2,6-difluoro-4-(sulfamoylamino)phenyl)-2-(4-ethyl-2,3-dioxopiperazine-1-carboxamido)acetamido)-2-hydroxy-3,4-dihydro-2H-benzo[e][1,2]oxaborinine-8-carboxylic acid] | D (D represents a potency <10 μM) | < 30 | > 64 | 4 to 8 (≈ 6.27 to 12.5 µM) | 16 to 32 (≈ 25.1 to 50.1 µM) | 0.25 to 0.5 (≈ 0.392 to 0.783 µM) | > 64 | 4 to 8 (≈ 6.27 to 12.5 µM) | > 64 | > 64
